Measurements: patent US20230031280A1, “GLP-2 FUSION POLYPEPTIDES AND USES FOR TREATING AND PREVENTING GASTROINTESTINAL CONDITIONS” (SHIRE-NPS PHARMACEUTICALS, INC., priority 2017, published 2023)
Read-outs that look alike come from different tables or passages of the source.

Assays:
[1] = Cynomolgus monkey pharmacokinetic study; assay type: in vivo, cynomolgus monkeys; conditions: subcutaneous, 12.5 nmol/kg
Method: Pharmacokinetics studies of teduglutide, GLP-2 Peptibody B and GLP-2 Peptibody K were formed in cynomolgus monkeys with citrulline assayed as a biomarker of GLP-2 concentration. In the study, 12.5 nmol/kg teduglutide was administered subcutaneously to a group of 6 male cynomolgus monkeys at day 1. Then for one set of 2 monkeys, 25 nmol/kg GLP-2 Peptibody B was administered intravenously at day 7, day 21, day 28, day 35, and day 42. For another set of 3 monkeys, 25 nmol/kg GLP-2 Peptibody B was administered subcutaneously at day 7, day 21, day 28, day 35, and day 42. For another set of monkeys, 5 nmol/kg GLP-2 Peptibody K was administered intravenously (2 monkeys) and subcutaneously (3 monkeys) at day 7, day 21, day 28, day 35, and day 42. For another set of monkeys, 25 nmol/kg GLP-2 Peptibody K was administered subcutaneously (3 monkeys) and intravenously (2 monkeys) at day 7, day 21, day 28, day 35, and day 42.

[2] = target: monomer/dimer self-association; experiment: Microscale thermophoresis (MST) monomer/dimer equilibrium; assay type: physicochemical
Method: (§1) Microscale thermophoresis (MST) and nano differential scanning fluorimetry (NanoDSF) were performed to characterize the dimer-monomer transition. MST was used to determine the monomer/dimer equilibrium dissociation constant Kd. MST is based on thermodriven diffusion of molecules while NanoDSF is based on Trp fluorescence and is commonly used for thermostability Tm.

[3] = cited from earlier work
[4] = target: GLP-2-Fc self-association; experiment: NanoDSF at room temperature, monomer/dimer self-association; assay type: physicochemical
Method: as §1
In the NanoDSF assay, room temperature is used and one tryptophan in GLP-2 is targeted that potentially undergoes conformational changes during GLP-2-Fc self-association. Only the tryptophan fluorescence from the protein contributes to the signal. If tryptophan is buried or stable, the peak is at 330 nm and if the tryptophan is exposed or flexible, the peak is at 350 nm.

[5] = tested on: CD-1 mice; experiment: Pharmacodynamic plateau study (small intestine weight); assay type: in vivo; conditions: female CD-1 mice
Method: Various doses of GLP-2 peptibody K274 were analyzed in female CD-1 mice to assess the pharmacodynamic plateau, with the primary endpoint a measurement of the small intestinal weight relative to the total body weight and a histology study of the length of villi. Eight groups of six females each were formed. In two groups, only the vehicle was administered Q3D for as a negative control. In four groups, the following doses were administered Q3D over 14 days: 0.45 mg/kg, 1.5 mg/kg, 4.5 mg/kg and 15 mg/kg. In one additional group, 4.5 mg/kg was administered Q3D for 14 days with the study ending four days later at day 18. In another additional group, 4.5 mg/kg was administered Q3D for 14 days with the study ending seven days later at day 21.
For the primary endpoint, the small intestine weight in grams is shown in FIG. 12A, the small intestine weight normalized to body weight is shown in FIG. 12B, and the colon weight normalized to body weight is shown in FIG. 12C. A dose of 4.5 mg/kg had maximum effect.
FIG. 13B is a graph depicting the percentage change in small intestine weight for both vehicle and GLP-2 peptibody K274.

[6] = Rat pharmacokinetic comparability with/without C-terminal lysine; assay type: in vivo, Sprague-Dawley rats; conditions: 1 mg/kg, intravenous and subcutaneous
Method: 1 mg/kg of total GLP-2 peptibody K protein was administered subcutaneously to one group of six male Sprague-Dawley rats. 1 mg/kg of total GLP-2 peptibody K274 protein was administered intravenously to another group of six male Sprague-Dawley rats. 1 mg/kg of total GLP-2 peptibody B protein was administered subcutaneously to a third group of five male Sprague-Dawley rats. 1 mg/kg of total GLP-2 peptibody B264 protein was administered subcutaneously to a fourth group of five male Sprague-Dawley rats.
For all of the above groups, plasma samples were taken pre-dose, and at the following time points post-dose: 5 minutes (day 1), 10 minutes (day 1), 20 minutes (day 1), 30 minutes (day 1), 1 hour (day 1), 2 hours (day 1), 6 hours (day 1), 24 hours (day 2), 48 hours (day 3), 72 hours (day 4), 120 hours (day 6), 168 hours (day 8), 240 hours (day 11), and 336 hours (day 15).
Tables showing the pharmacokinetic data comparing intravenously administered GLP-2 peptibody K and GLP-2 peptibody K274 are in FIG. 10B. Tables showing the pharmacokinetic data comparing subcutaneously administered GLP-2 peptibody K and GL-2 peptibody K274 are in FIG. 10C.

[7] = tested on: CD-1 mice; experiment: Histology study of villi length, washout period; assay type: in vivo, female CD-1 mice; conditions: 4.5 mg/kg Q3D over 14 days, days 15, 18, 21
Method: Various doses of GLP-2 peptibody B264 were analyzed to assess the pharmacodynamic plateau, with the primary endpoint a measurement of the small intestinal weight relative to the total body weight and a histology study of the length of villi. 11 groups of six female CD-1 mice each were formed.
For histology, four micron paraffin sections were prepared for H&E and Ki67 IHC staining. After whole slide scanning, an imagescope was used to measure villi length and crypt depth, and to analyze Ki67. The antibody against Ki67 is a rabbit antibody sold by Adcam®, catalog number ab 616667. The antibody was used at a working concentration of 1:100 and was detected using a Leica® Refine Kit.
The first day after the washout period ends is day 15, the second day is day 16, etc. Day 2 of the washout period corresponds with day 15. Day 5 of the washout period corresponds with day 18. Day 8 of the washout period corresponds with day 21. D15, D18, and D21 correspond to days 15, 18 and 21 on which the villi length was measured.

[8] = Mouse pharmacokinetics of GLP-2 peptibody K274; assay type: in vivo; conditions: CD1 mice, Q3D over 14 days
Method: A pharmacokinetics analysis was performed in CD1 mice. […] Mice were divided into groups, with one group administered 0.45 mg/kg every three days (Q3D), another administered 1.5 mg/kg Q3D, another administered 4.5 mg/kg Q3D, and another administered 15 mg/kg Q3D over a 14 day period. After dosing was discontinued, concentrations were measured 3, 9, 14, and 21 days later.

[9] = tested on: mice; experiment: Fat (triglyceride) tolerance test with olive oil bolus; assay type: in vivo; conditions: female mice, 4.5 mg/kg every 3 days for 13 days, olive oil bolus 10 mL/kg, vs vehicle
Method: A fat tolerance assay was performed in mice to assess the ability of GLP-2 peptibody K274 to promote absorption of dietary fats. Dietary fat is hydrolyzed into free fatty acids and glycerides, which are transported through the intestinal villi and absorbed by enterocytes. The enterocytes synthesize the triglycerides, which then enter the bloodstream. Such postprandial triglycerides peak in the bloodstream at about 3 hours after ingestion of a fat-rich meal.
It is hypothesized that GLP-2 peptibody K274, by enhancing length of the intestinal villi, would improve the absorption of fatty acids in a mouse model of short bowel syndrome. Assaying for an increase in peak postprandial triglycerides allows for detection of such increased absorption.
Female mice were divided into two groups of […] mice each. Both groups were treated every 3 days for a total of 13 days either with 4.5 mg/kg K274 peptibody (treated group) or vehicle (control group). On day 14 after start of treatment, mice in both groups were fasted for 6 hours followed by administration of an olive oil bolus of 10 mL/kg. Mice in the treated and control groups were divided into 6 subgroups of 6 animals each. […] Plasma triglyceride concentrations were measured on a Cobas C311 instrument (Roche) using the TRIGB assay kit.

Compound	Vc [1] [L/kg]	association constant (ka) [1] [day⁻¹]	Kd [2] [µM]	half-life ([3]; SBS patients) [h]	half-life ([3]; healthy patients)	Kd [4] [µM]	persistence of increased small intestine weight normalized to body weight after dosing ([5]; 4.5 mg/kg Q3D for 14 days, washout)	dose with maximum effect on small intestine / colon weight ([5]; Q3D over 14 days) [mg/kg]	pharmacokinetic comparability of K and K274 [6]	persistence of villi length during washout period [7]	CL/F [8] [mL/h/kg]	Vc [8] [L/kg]	postprandial triglyceride concentration in the bloodstream [9]
CC[C@H](C)[C@H](NC(=O)[C@H](Cc1ccccc1)NC(=O)[C@H](CC(=O)O)NC(=O)[C@H](CCCNC(=N)N)NC(=O)[C@H](C)NC(=O)[C@H](C)NC(=O)[C@H](CC(C)C)NC(=O)[C@H](CC(N)=O)NC(=O)[C@H](CC(=O)O)NC(=O)[C@H](CC(C)C)NC(=O)[C@@H](NC(=O)[C@@H](NC(=O)[C@H](CC(N)=O)NC(=O)[C@H](CCSC)NC(=O)[C@H](CCC(=O)O)NC(=O)[C@H](CC(=O)O)NC(=O)[C@H](CO)NC(=O)[C@H](Cc1ccccc1)NC(=O)[C@H](CO)NC(=O)CNC(=O)[C@H](CC(=O)O)NC(=O)CNC(=O)[C@@H](N)Cc1c[nH]cn1)[C@@H](C)O)[C@@H](C)CC)C(=O)N[C@@H](CC(N)=O)C(=O)N[C@@H](Cc1c[nH]c2ccccc12)C(=O)N[C@@H](CC(C)C)C(=O)N[C@H](C(=O)N[C@@H](CCC(N)=O)C(=O)N[C@H](C(=O)N[C@@H](CCCCN)C(=O)N[C@H](C(=O)N[C@H](C(=O)N[C@@H](CC(=O)O)C(=O)O)[C@@H](C)O)[C@@H](C)CC)[C@@H](C)O)[C@@H](C)CC [teduglutide]	0.218	9.67	24 ± 3	~1.3	approximately 2 hours	77 ± 14							
GLP-2 peptibody K274: GLP-2[A2G]-GGGGSGGGGSGGGGS linker-IgG1 Fc (LALA) without C-terminal lysine; SEQ ID NO: 7							persisted for at least five days after dosing	4.5	identical from a pharmacokinetic point of view	more persistence than does GLP-2 peptibody B264	3.39	0.213	significantly higher
